# Measured values reported in patent US7268128B2, “1,3,5-trisubstituted-5-phenyl and 5-pyridyl pyrazolopyrimidinone derivatives having PDE7 inhibiting action” (Ausbio Pharma Co., Ltd., priority 2001, dated 2007).
# Target: T1, PDE7 (type VII phosphodiesterase) (Homo sapiens, UniProt Q13946)
# T1 construct: endogenous in cells; host or cells: MOLT-4 (ATCC CRL-1582), soluble fraction, HiTrapQ anion-exchange fraction
# Experiment: PDE7 inhibiting activity (3H-cAMP hydrolysis, active fraction from MOLT-4 cells)
# Format: biochemical
# Settings: PDE7 fraction from MOLT-4 cells, 0.064 μM cAMP, 10 μM rolipram present, 2 hours at 25° C.; read-out: IC50 values for phosphodiesterase inhibiting activities (PDE7)
# Method in brief: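 Read-out: supernatant radioactivity after twice-repeated QAE-Sephadex treatment of a 2 h, 25° C reaction (3H-cAMP at 0.064 μM cAMP, 10 μM rolipram, 5′-nucleotidase, 1 mM MgCl2, pH 7.5). Enzyme is an anion-exchange-purified fraction from MOLT-4 T cells. IC50 taken as half-maximal inhibition.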
# T1 sequence (Q13946 whole entry): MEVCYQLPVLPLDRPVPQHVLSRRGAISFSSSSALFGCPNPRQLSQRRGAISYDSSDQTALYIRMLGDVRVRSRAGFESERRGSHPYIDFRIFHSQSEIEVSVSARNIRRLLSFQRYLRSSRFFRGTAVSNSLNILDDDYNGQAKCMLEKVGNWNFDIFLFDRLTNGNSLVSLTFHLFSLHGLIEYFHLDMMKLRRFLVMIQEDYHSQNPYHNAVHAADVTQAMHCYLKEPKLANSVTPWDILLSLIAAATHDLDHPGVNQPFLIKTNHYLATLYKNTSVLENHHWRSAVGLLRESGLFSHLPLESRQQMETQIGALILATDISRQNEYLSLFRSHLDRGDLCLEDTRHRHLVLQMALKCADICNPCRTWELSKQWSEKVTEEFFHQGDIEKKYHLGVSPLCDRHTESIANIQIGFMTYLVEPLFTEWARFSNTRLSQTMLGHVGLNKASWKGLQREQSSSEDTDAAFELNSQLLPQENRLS
row,Structure (SMILES),IC50
1,"CNS(=O)(=O)c1ccc(-c2nc3c(c(C4CCCCC4)nn3C)c(=O)[nH]2)c(OC)c1 [Example 204, 4-(3-Cyclohexyl-1-methyl-4-oxo-4,5-dihydro-1H-pyrazolo[3,4-d]pyrimidin-6-yl)-3-methoxy-N-methylbenzenesulfonamide]",≤ 1000 nM
2,"CCn1nc(C2CCCCC2)c2c(=O)[nH]c(-c3ccc(S(=O)(=O)N4CCC(O)CC4)cc3OC)nc21 [Example 207, 3-Cyclohexyl-1-ethyl-6-{4-[(4-hydroxy-1-piperidinyl)sulfonyl]-2-methoxyphenyl}-1,5-dihydro-4H-pyrazolo[3,4-d]pyrimidin-4-one]",≤ 1000 nM
3,"CCn1nc(C2CCCCC2)c2c(=O)[nH]c(-c3ccc(S(=O)(=O)N4CCCN(C)CC4)cc3OC)nc21 [Example 208, 3-Cyclohexyl-1-ethyl-6-{2-methoxy-4-[(4-methyl-1,4-diazepan-1-yl)sulfonyl]phenyl}-1,5-dihydro-4H-pyrazolo[3,4-d]pyrimidin-4-one]",≤ 1000 nM
4,"CCn1nc(C2CCCCC2)c2c(=O)[nH]c(-c3ccc(S(=O)(=O)N4CCCNCC4)cc3OC)nc21 [Example 209, 3-Cyclohexyl-6-[4-(1,4-diazepan-1-ylsulfonyl)-2-methoxyphenyl]-1-ethyl-1,5-dihydro-4H-pyrazolo[3,4-d]pyrimidin-4-one]",≤ 1000 nM
5,"COc1cc(S(=O)(=O)N(C)CCN)ccc1-c1nc2c(C)nn(C3CCCCC3)c2c(=O)[nH]1 [Example 210-1, N-(2-aminoethyl)-4-(1-cyclohexyl-3-methyl-7-oxo-6,7-dihydro-1H-pyrazolo[4,3-d]pyrimidin-5-yl)-3-methoxy-N-methylbenzenesulfonamide]",≤ 1000 nM
6,"CNCCNS(=O)(=O)c1ccc(-c2nc3c(C)nn(C4CCCCC4)c3c(=O)[nH]2)c(OC)c1 [Example 210-2, 4-(1-Cyclohexyl-3-methyl-7-oxo-6,7-dihydro-1H-pyrazolo[4,3-d]pyrimidin-5-yl)-3-methoxy-N-[2-(methylamino)ethyl]benzenesulfonamide]",≤ 1000 nM
7,"COc1cc(S(=O)(=O)NCCN(C)C)ccc1-c1nc2c(C)nn(C3CCCCC3)c2c(=O)[nH]1 [Example 211, 4-(1-Cyclohexyl-3-methyl-7-oxo-6,7-dihydro-1H-pyrazolo[4,3-d]pyrimidin-5-yl)-N-[2-(dimethylamino)ethyl]-3-methoxybenzenesulfonamide]",≤ 1000 nM

# Now from value to molecule:
row,IC50,Structure (SMILES)
1,≤ 1000 nM,"COc1cc(S(=O)(=O)N2CCCN(C)CC2)ccc1-c1nc2c(C)nn(C3CCCCC3)c2c(=O)[nH]1 [Example 198, 1-Cyclohexyl-5-{2-methoxy-4-[(4-methyl-1,4-diazepan-1-yl)sulfonyl]phenyl}-3-methyl-1,6-dihydro-7H-pyrazolo[4,3-d]pyrimidin-7-one]"
2,≤ 1000 nM,"COc1cc(S(=O)(=O)N2CCC(O)CC2)ccc1-c1nc2c(C)nn(C3CCCCC3)c2c(=O)[nH]1 [Example 199, 1-Cyclohexyl-5-{4-[(4-hydroxy-1-piperidinyl)sulfonyl]-2-methoxyphenyl}-3-methyl-1,6-dihydro-7H-pyrazolo[4,3-d]pyrimidin-7-one]"
3,≤ 1000 nM,"COc1cc(S(=O)(=O)NCCO)ccc1-c1nc2c(C)nn(C3CCCCC3)c2c(=O)[nH]1 [Example 200, 4-(1-Cyclohexyl-3-methyl-7-oxo-6,7-dihydro-1H-pyrazolo[4,3-d]pyrimidin-5-yl)-N-(2-hydroxyethyl)-3-methoxybenzenesulfonamide]"
4,≤ 1000 nM,"CNS(=O)(=O)c1ccc(-c2nc3c(C)nn(C4CCCCC4)c3c(=O)[nH]2)c(OC)c1 [Example 201, 4-(1-Cyclohexyl-3-methyl-7-oxo-6,7-dihydro-1H-pyrazolo[4,3-d]pyrimidin-5-yl)-3-methoxy-N-methylbenzenesulfonamide]"
5,≤ 1000 nM,"COc1cc(S(=O)(=O)N2CCCNCC2)ccc1-c1nc2c(C)nn(C3CCCCC3)c2c(=O)[nH]1 [Example 203, 1-Cyclohexyl-5-[4-(1,4-diazepan-1-ylsulfonyl)-2-methoxyphenyl]-3-methyl-1,6-dihydro-7H-pyrazolo[4,3-d]pyrimidin-7-one monomethanesulfonate]"
